In patent publication US8778966B2, “Quinolinone derivatives as PARP and tank inhibitors” (Janssen Pharmaceutica, NV, priority 2007, dated 2014):

What was measured:
TANK-2 enzyme = molecular target: T1, TANK-2 enzyme (Homo sapiens, UniProt Q9H2K2); assay: In vitro Scintillation Proximity Assay (SPA) for TANK-2 inhibitory activity; type: biochemical; conditions: read-out: in vitro SPA assay TANK-2 pIC50 (converted)
T1 construct: made in house
T1 sequence (Q9H2K2 1-1166): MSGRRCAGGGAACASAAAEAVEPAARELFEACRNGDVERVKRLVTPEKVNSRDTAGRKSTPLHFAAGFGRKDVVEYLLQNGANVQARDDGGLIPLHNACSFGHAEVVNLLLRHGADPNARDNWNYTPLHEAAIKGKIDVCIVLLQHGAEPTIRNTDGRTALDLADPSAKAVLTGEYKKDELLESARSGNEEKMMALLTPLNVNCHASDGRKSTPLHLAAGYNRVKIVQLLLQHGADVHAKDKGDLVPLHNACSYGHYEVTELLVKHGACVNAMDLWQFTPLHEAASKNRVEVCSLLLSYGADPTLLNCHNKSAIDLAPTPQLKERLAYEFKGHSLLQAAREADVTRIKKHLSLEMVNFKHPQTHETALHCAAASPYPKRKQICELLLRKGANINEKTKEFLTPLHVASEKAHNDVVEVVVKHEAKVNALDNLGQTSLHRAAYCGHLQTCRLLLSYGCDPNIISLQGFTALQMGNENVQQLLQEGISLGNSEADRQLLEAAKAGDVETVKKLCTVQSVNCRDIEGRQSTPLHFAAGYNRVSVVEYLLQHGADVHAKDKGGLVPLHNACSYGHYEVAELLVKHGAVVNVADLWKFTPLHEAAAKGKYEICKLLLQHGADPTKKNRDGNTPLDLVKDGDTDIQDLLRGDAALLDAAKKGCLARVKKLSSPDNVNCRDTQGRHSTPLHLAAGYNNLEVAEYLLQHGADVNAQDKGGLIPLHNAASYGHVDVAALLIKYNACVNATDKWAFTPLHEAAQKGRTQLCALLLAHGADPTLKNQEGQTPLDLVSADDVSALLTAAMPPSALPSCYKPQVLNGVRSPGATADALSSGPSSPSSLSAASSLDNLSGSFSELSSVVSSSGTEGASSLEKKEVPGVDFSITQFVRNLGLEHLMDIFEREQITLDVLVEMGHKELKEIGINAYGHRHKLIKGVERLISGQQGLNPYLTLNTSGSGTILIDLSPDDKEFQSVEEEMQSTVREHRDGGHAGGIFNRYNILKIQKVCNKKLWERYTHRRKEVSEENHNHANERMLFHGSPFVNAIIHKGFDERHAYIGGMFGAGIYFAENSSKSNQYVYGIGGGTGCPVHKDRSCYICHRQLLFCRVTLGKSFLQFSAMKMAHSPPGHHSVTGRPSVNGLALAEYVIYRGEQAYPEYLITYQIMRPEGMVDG
Procedure, shortened: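 Results are pIC50 values, with IC50 interpolated linearly around 50% of blank-subtracted control cpm. They come from a scintillation proximity read of TANK-2 (8 μg/ml) self-modification with [3H]-NAD+/NAD, incubated 120 min at room temperature in pH 7.4 Tris buffer containing MgCl2 and DTT. Compounds were first screened at 10^−5 M.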

PC3 cells = assay: EB1 Comet (microtubule disruption) assay; type: cell-based, human; conditions: Homo sapiens, PC-3, 1 h, 1 hour treatment, read-out: EB1 pLAC (converted)
Procedure, shortened: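 Readout is loss of Eb1 plus-end foci, scored by immunofluorescence microscopy, in PC3 cells after 1 h compound treatment at 37 °C with 0.6% final DMSO. LAC is defined as the lowest concentration leaving at least 50% of cells without Eb1 foci.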

IC50 (TANK-2 enzyme) [nM] | Structure (SMILES) | minimal effective concentration (PC3 cells) [µM]
501 | CCc1cc2ccc([C@@](C)(C#N)Cc3cccc(N(C)C)c3)cc2[nH]c1=O (single isomer, unassigned) [Compound 258] | 0.316
200 | CCc1cc2ccc([C@](C)(C#N)Cc3cccc(N(C)C)c3)cc2[nH]c1=O (single isomer, unassigned) [Compound 259] | –
79.4 | CCc1cc2ccc([C@@](C)(C#N)Cc3cccc(C#N)c3)cc2[nH]c1=O (single isomer, unassigned) [Compound 268] | –
158 | CCc1cc2ccc([C@](C)(C#N)Cc3cccc(C#N)c3)cc2[nH]c1=O (single isomer, unassigned) [Compound 269] | 0.1
398 | C#Cc1cccc(C[C@](C)(C#N)c2ccc3cc(CC)c(=O)[nH]c3c2)c1 [Compound 2] | –
501 | C#Cc1cccc(C[C@@](C)(C#N)c2ccc3cc(CC)c(=O)[nH]c3c2)c1 [Compound 3] | 0.01
631 | CCc1cc2ccc(C(C)(C#N)Cc3ccc(C)nc3)cc2[nH]c1=O (centres unmarked) [Compound 327] | –
501 | CCc1cc2ccc(C(C)(C#N)Cc3cccc(CO)n3)cc2[nH]c1=O (centres unmarked) [Compound 345] | –
200 | CCc1cc2ccc(C(C)(C#N)Cc3cccc(OC)n3)cc2[nH]c1=O (centres unmarked) [Compound 353] | –
501 | CCc1cc2ccc(C(C)(C#N)Cc3cc(OC)ccn3)cc2[nH]c1=O (centres unmarked) [Compound 373] | –

The next lines start with the molecule.

Structure (SMILES) | IC50 (TANK-2 enzyme) [nM] | minimal effective concentration (PC3 cells) [µM]
CCc1cc2ccc(C(C)(C#N)Cc3cccc(C#N)n3)cc2[nH]c1=O (single isomer, unassigned) [Compound 206] | 50.1 | –
CCc1cc2ccc(C(C)(C#N)Cc3cccc(C#N)n3)cc2[nH]c1=O (single isomer, unassigned) [Compound 207] | 31.6 | 0.1
CCC[C@@](C#N)(Cc1ccccc1)c1ccc2cc(CC)c(=O)[nH]c2c1 (single isomer, unassigned) [Compound 263] | 2000 | 3.16
CCC[C@](C#N)(Cc1ccccc1)c1ccc2cc(CC)c(=O)[nH]c2c1 (single isomer, unassigned) [Compound 264] | 2510 | –
CCc1cc2ccc([C@](C)(C#N)C[C@@H]3Cc4cc(C)ccc4O3)cc2[nH]c1=O (single isomer, unassigned) [Compound 400] | 501 | –
CCc1cc2ccc(C(C#N)(CC)Cc3ccccc3)cc2[nH]c1=O (centres unmarked) [Compound 32] | 79.4 | 1
COc1ccccc1-c1nc(CC(C)(C#N)c2ccc3cc(C)c(=O)[nH]c3c2)no1 (centres unmarked) [Compound 33] | 158 | –
Cc1cc2ccc(C(C)(C#N)Cc3cccc(C#N)c3)cc2[nH]c1=O (centres unmarked) [Compound 34] | 31.6 | 0.316
Cc1cc2ccc([C@@](C)(C#N)Cc3cccc(C#N)c3)cc2[nH]c1=O [Compound 35] | 316 | –
CC(C)c1cc2ccc(C(C)(C#N)Cc3ccccc3)cc2[nH]c1=O (centres unmarked) [Compound 38] | 501 | –
CC(=O)c1cc2ccc(C(C)(C#N)Cc3ccccc3)cc2[nH]c1=O (centres unmarked) [Compound 39] | 316 | –
CCc1cc2cc(OCCOC)c(C(C)(C#N)Cc3cccc(C#N)c3)cc2[nH]c1=O (centres unmarked) [Compound 182] | 31.6 | –
CCc1cc2ccc([C@](C)(C#N)[C@@H](C)c3ccccc3)cc2[nH]c1=O [Compound 199] | 1260 | –
CCc1cc2ccc(C(C)(C#N)Cc3cccc(OCCO)c3)cc2[nH]c1=O (centres unmarked) [Compound 262] | 631 | –
CCc1cc2ccc(C(C)(C#N)CCOc3cccc(C(F)(F)F)c3)cc2[nH]c1=O (centres unmarked) [Compound 274] | 2510 | –
CCc1cc2cc(OC)c(C(C)(C#N)Cc3ccccc3)cc2[nH]c1=O (centres unmarked) [Compound 294] | 158 | –
COc1cc(OC)nc(CC(C)(C#N)c2ccc3cc(C)c(=O)[nH]c3c2)n1 (centres unmarked) [Compound 308] | 3160 | –
CCc1cc2ccc(C(C)(C#N)Cc3cc(OC)nc(OC)n3)cc2[nH]c1=O (centres unmarked) [Compound 358] | 100 | –
